Measured values taken from patent EP0514133A1, “Benzodiazepine derivatives, compositions containing them and their use in therapy” (priority 1991, dated 1992).
Like-named read-outs stand apart in the source and are kept apart here.

Tests used:
[1] = molecular target: T1, CCK receptor (brain, cortex) (Cavia porcellus, UniProt H0VZC5); experiment: biochemical; type: binding, guinea pig
T1 construct: the cortex was removed and homogenized in 25 mL ice-cold 0.32 M sucrose; from tissue; host or cells: guinea pig brain cortex P2 membrane pellet
T1 sequence (H0VZC5 1-426): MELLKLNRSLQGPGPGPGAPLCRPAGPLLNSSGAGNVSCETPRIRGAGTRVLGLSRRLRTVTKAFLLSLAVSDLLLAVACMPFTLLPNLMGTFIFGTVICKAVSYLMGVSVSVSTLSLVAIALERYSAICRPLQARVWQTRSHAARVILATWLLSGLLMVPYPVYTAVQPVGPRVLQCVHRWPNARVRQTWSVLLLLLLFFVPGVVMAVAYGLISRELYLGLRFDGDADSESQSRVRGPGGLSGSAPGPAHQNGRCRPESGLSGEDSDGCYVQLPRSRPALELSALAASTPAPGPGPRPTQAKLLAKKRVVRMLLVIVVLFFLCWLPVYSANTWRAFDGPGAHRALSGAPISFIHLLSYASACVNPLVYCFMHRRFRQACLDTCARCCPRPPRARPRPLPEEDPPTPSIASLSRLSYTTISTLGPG
Protocol: CCK-8 sulphated was radiolabelled and the binding was performed according to the description for the pancreas method with minor modifications.
Male Hartley guinea pigs (300-500g) were sacrificed by decapitation and the cortex was removed and homogenized in 25 mL ice-cold 0.32 M sucrose. The homogenates were centrifuged at 1000 g for 10 minutes and the resulting supernatant was recentrifuged at 20,000 g for 20 minutes. The P₂ pellet was resuspended in binding assay buffer (20mM HEPES, 5 mM MgCl₂, 0.25 mg/ml bacitracin, 1 mM EGTA pH 6.5 at 25°C), using a Teflon (trademark) homogenizer (5 strokes at 500 rpm) to give a final concentration of 10 mg original wet weight/1.2 ml buffer. […] All assays were run in duplicate. The reaction mixtures were incubated at 25°C for 2 hours and then the reaction was terminated by rapid filtration (Brandell 24 well cell harvester) on Whatman GF/C filters with 3 x 5 ml washes of cold 100 mM NaCl. The radioactivity on the filters was counted with a LKB gamma counter.
(§1) Drug displacement studies were performed with at least 10 concentrations of compounds of Formula I and the IC₅₀ values were determined by regression analysis IC₅₀ refers to the concentration of the compound required to inhibit 50% of specific binding of ¹²⁵I-CCK-8.

CCK receptor (pancreas) = molecular target: T2, CCK receptor (pancreas) (Rattus norvegicus, UniProt P30551); experiment: biochemical; type: binding; settings: rat pancreas membranes; for IC50: 50 pM 125I-CCK-8, 25°C 2 hours
T2 construct: The whole pancreas was dissected free of fat tissue and was homogenized; from tissue; host or cells: rat pancreas membrane homogenate
T2 sequence (P30551 1-444): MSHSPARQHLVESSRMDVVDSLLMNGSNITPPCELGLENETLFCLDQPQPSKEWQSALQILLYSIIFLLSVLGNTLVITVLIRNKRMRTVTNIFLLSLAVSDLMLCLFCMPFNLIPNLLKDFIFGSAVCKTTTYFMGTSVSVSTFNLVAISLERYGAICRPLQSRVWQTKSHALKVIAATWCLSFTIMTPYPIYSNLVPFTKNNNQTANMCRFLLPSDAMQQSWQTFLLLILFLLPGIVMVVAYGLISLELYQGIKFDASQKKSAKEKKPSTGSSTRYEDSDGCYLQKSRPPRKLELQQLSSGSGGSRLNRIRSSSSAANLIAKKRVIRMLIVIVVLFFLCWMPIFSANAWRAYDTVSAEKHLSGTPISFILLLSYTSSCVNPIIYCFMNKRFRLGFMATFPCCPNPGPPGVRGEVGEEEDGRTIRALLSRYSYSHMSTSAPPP
Protocol: CCK-8 sulphated was radiolabelled with ¹²⁵I-Bolton Hunter reagent (2000 Ci/mmole). Receptor binding was performed according to Chang and Lotti (Proc. Natl. Acad. Sci. 83, 4923-4926, 1986) with minor modifications.
Male Sprague-Dawley rats (150-200g) were sacrificed by decapitation. The whole pancreas was dissected free of fat tissue and was homogenized in 25 volumes of ice-cold 10 mM N-2-hydroxyethyl-piperazine-N′-2-ethane sulphonic acid (HEPES) buffer with 0.1% soya bean trypsin inhibitor (pH 7.4 at 25°C) with a Kinematica Polytron. The homogenates were centrifuged at 47,800 g for 10 min. Pellets were resuspended in 10 volumes of binding assay buffer (20mM (HEPES)), 1mM ethylene glycol-bis-(β-aminoethylether-N,N′-tetraacetic acid) (EGTA), 5mM MgCl₂, 150 mM NaCl, bacitracin 0.25 mg/ml, soya bean trypsin inhibitor 0.1 mg/ml, and bovine serum albumin 2 mg/ml pH 6.5 at 25°C) using a Teflon (trademark) homogenizer, 15 strokes at 500 rpm. The homogenate was further diluted in binding assay buffer to give a final concentration of 0.5 mg original wet weight/1 ml buffer. […] All assays were run in duplicate. The reaction mixtures were incubated at 25°C for 2 hours and the reaction terminated by rapid filtration (Brandell 24 well cell harvester) over Whatman GF/C filters, washing 3 x 4 mls with ice-cold 100 Mm NaCl. The radioactivity on the filters was counted with a LKB gamma counter.
as §1

[2] = guinea pig cortex membranes, 50 pM 125I-CCK-8, 25°C 2 hours, read-out: IC50 ^125I-CCK Brain

inhibition at 3 µM (CCK receptor (pancreas); at 3μM, read-out: inhibition of ^125I-CCK binding, Pancreas) | SMILES | IC50 [1, 2] | IC50 (CCK receptor (pancreas)) | IC50 [1]
~27% | CC(C)CN1C(=O)C(NC(=O)Nc2cccc(-c3nn[nH]n3)c2)N=C(C2CCCCC2)c2ccccc21 (racemic) [Example 2, N-[3(R,S)-5-Cyclohexyl-2,3-dihydro-1-(2-methylpropyl)-2-oxo-1H-1,4-benzodiazepin-3-yl] N′-[3-tetrazol-5-ylphenyl] urea] | 0.42 nM | – | –
– | CC(C)CN1C(=O)C(NC(=O)Nc2cccc(-c3nn[nH]n3)c2)N=C(C2CCCC2)c2ccccc21 (racemic) [Example 3, N-[3(R,S)-5-Cyclopentyl-2,3-dihydro-1-(2-methylpropyl)-2-oxo-1H-1,4-benzodiazepin-3-yl] N′-[3-tetrazol-5-ylphenyl]urea] | 0.3 nM | 800 nM | –
– | CCN1C(=O)C(NC(=O)Nc2cccc(-c3nn[nH]n3)c2)N=C(C2CCCC2)c2ccccc21 (racemic) [Example 5, N-[3(R,S)-5-Cyclopentyl-2,3-dihydro-1-ethyl-2-oxo-1H-1,4-benzodiazepin-3-yl] N′-[3-tetrazol-5-ylphenyl]urea] | 0.71 nM | 140 nM | –
– | CCCN1C(=O)C(NC(=O)Nc2cccc(-c3nn[nH]n3)c2)N=C(C2CCCC2)c2ccccc21 (racemic) [Example 6, N-[3(R,S)-5-Cyclopentyl-2,3-dihydro-1-propyl-2-oxo-1H-1,4-benzodiazepin-3-,yl] N′-[3-tetrazol-5-ylphenyl] urea] | 0.96 nM | 1100 nM | –
– | CN1C(=O)C(NC(=O)Nc2cccc(-c3nn[nH]n3)c2)N=C(C2CCCC2)c2ccccc21 (racemic) [Example 8, N-[3(R,S)-5-Cyclopentyl-2,3-dihydro-1-methyl-2-oxo-1H-1,4-benzodiazepin-3-yl] N′-[3-tetrazol-5-ylphenyl] urea] | 1.6 nM | 56 nM | –
– | CN1C(=O)C(NC(=O)Nc2cccc(C(=O)O)c2)N=C(C2CCCCC2)c2ccccc21 (racemic) [Example 10, N-[3(R,S)-5-Cyclohexyl-2,3-dihydro-1-methyl-2-oxo-1H-1,4-benzodiazepin-3-yl] N′-[3-carboxyphenyl] urea] | – | 3.1 nM | 1.4 nM
– | CC(C)C(=O)NS(=O)(=O)c1cccc(NC(=O)NC2N=C(C3CCCCC3)c3ccccc3N(C)C2=O)c1 (racemic) [Example 11, N-[3(R,S)-5-Cyclohexyl-2,3-dihydro-1-methyl-2-oxo-1H-1,4-benzodiazepin-3-yl] N′-(3-(isopropylcarbonylaminosulphonyl)phenyl] urea] | 0.32 nM | 118 nM | –
– | CN1C(=O)C(NC(=O)Nc2cccc(S(=O)(=O)NC(=O)c3ccccc3)c2)N=C(C2CCCCC2)c2ccccc21 (racemic) [Example 13, N-(3(R,S)-5-Cyclohexyl-2,3-dihydro-1-methyl-2-oxo-1H-1,4-benzodiazepin-3-yl] N′-[3-(phenylcarbonylaminosulphonyl)phenyl] urea] | – | 738 nM | –
– | CN1C(=O)C(NC(=O)Nc2cccc(C(=O)NS(=O)(=O)c3ccccc3)c2)N=C(C2CCCCC2)c2ccccc21 (racemic) [Example 14, N-[3(R,S)-5-Cyclohexyl-2,3-dihydro-1-methyl-2-oxo-1H-1,4-benzodiazepin-3-yl] N′-[3-(phenylsulphonylaminocarbonyl)phenyl] urea] | 0.58 nM | 11.1 nM | –
– | CN1C(=O)C(NC(=O)Nc2cccc(C(=O)NS(C)(=O)=O)c2)N=C(C2CCCCC2)c2ccccc21 (racemic) [Example 16, N-(3(R,S)-5-Cyclohexyl-2,3-dihydro-1-methyl-2-oxo-1H-1,4-benzodiazepin-3-yl] N′-[3-(methylsulphonylaminocarbonyl)phenyl] urea] | – | 2 nM | –
– | CN1C(=O)C(NC(=O)Nc2cccc(C(=O)NS(=O)(=O)C(F)(F)F)c2)N=C(C2CCCCC2)c2ccccc21 (racemic) [Example 18, N-[3(R,S)-5-Cyclohexyl-2,3-dihydro-1-methyl-2-oxo-1H-1,4-benzodiazepin-3-,yl] N′-[3-(trifluoromethylsulphonylaminocarbonyl)phenyl] urea] | 0.09 nM | 13.8 nM | –
– | CC(C)CN1C(=O)C(NC(=O)Nc2cccc(C(=O)NS(C)(=O)=O)c2)N=C(C2CCCCC2)c2ccccc21 (racemic) [Example 19, N-(3(R,S)-5-Cyclohexyl-2,3-dihydro-1-(2-methylpropyl)-2-oxo-1H-1,4-benzodiazepin-3-yl] N′-[3-(methylsulphonylaminocarbonyl)phenyl] urea] | 12 nM | 570 nM | –
– | CN1C(=O)C(NC(=O)Nc2cccc(S(=O)(=O)Nc3nncs3)c2)N=C(C2CCCCC2)c2ccccc21 (racemic) [Example 21, N-[3(R,S)-5-Cyclohexyl-2,3-dihydro-1-methyl-2-oxo-1H-1,4-benzodiazepin-3-yl] N′-[3-(1,3,4-thiadiazol-2-ylaminosulphonyl)phenyl]urea] | 1.2 nM | 9.7 nM | –
– | CCS(=O)(=O)NC(=O)c1cccc(NC(=O)NC2N=C(C3CCCCC3)c3ccccc3N(C)C2=O)c1 (racemic) [Example 23, N-[3(R,S)-5-Cyclohexyl-2,3-dihydro-1-methyl-2-oxo-1H-1,4-benzodiazepin-3-yl] N′-[3-(ethylsulphonylaminocarbonyl)phenyl]urea] | 0.96 nM | 5 nM | –
– | CCCN1C(=O)C(NC(=O)Nc2cccc(C(=O)NS(C)(=O)=O)c2)N=C(C2CCCCC2)c2ccccc21 (racemic) [Example 25, N-[3(R,S)-5-Cyclohexyl-2,3-dihydro-1-propyl-2-oxo-1H-1,4-benzodiazepin-3-yl] N′-(3-(methylsulphonylaminocarbonyl)phenyl]urea] | 1.9 nM | 220 nM | –
– | CN1C(=O)C(NC(=O)Nc2cccc(C(=O)NS(=O)(=O)c3ccccc3)c2)N=C(C2CCCC2)c2ccccc21 (racemic) [Example 40, N-[3(R,S)-5-Cyclopentyl-2,3-dihydro-1-methyl-2-oxo-1H-1,4-benzodiazepin-3-yl] N′-[3-(phenylsulphonylaminocarbonyl)phenyl] urea] | – | 310 nM | –
– | Cc1cccc(NC(=O)NC2N=C(C3CCCCC3)c3ccccc3N(C)C2=O)c1 (single isomer, unassigned) [7 (Peak B)] | 100 nM | – | –
– | CC(C)S(=O)(=O)NC(=O)c1cccc(NC(=O)NC2N=C(C3CCCCC3)c3ccccc3N(C)C2=O)c1 (single isomer, unassigned) [24 (Peak B)] | – | 5 nM | –
– | Cc1ccccc1S(=O)(=O)NC(=O)c1cccc(NC(=O)N[C@@H]2N=C(C3CCCCC3)c3ccccc3N(C)C2=O)c1 [Example 33, N-[3(R)-5-Cyclohexyl-2,3-dihydro-1-methyl-2-oxo-1H-1,4-benzodiazepin-3-yl] N′-[3-(2-methylphenylsulphonylaminocarbonyl)phenyl] urea] | – | 1600 nM | –
